According to PMC5929572, “Nucleobases and corresponding nucleosides display potent antiviral activities against dengue virus possibly through viral lethal mutagenesis” (PLoS Neglected Tropical Diseases, 2018):
Like-named read-outs stand apart in the source and are kept apart here.

Legend:
[1] = tested on: DENV replicon cells (BHK pD2-hRucPac-2ATG30); assay: Cell viability assay (MTS) in DENV replicon cells; format: cell-based, baby hamster
[2] = Cell viability assay (MTS) in DENV replicon cells; format: cell-based, baby hamster; conditions: hamster, DENV replicon cells (BHK pD2-hRucPac-2ATG30), DENV replicon BHK cells, MTS, 72 h
[3] = tested on: DENV-2 viral replicon; assay: microbe, parasite or virus in culture; format: cell-based; conditions: for EC50: Dengue virus
Experimental: Compounds were evaluated for antiviral properties using BHK cells containing a DENV-2 viral replicon. 1.5 × 10^3 replicon-containing cells per well were plated in white opaque 96-well plates in the absence of antibiotic selection and the next day, compounds dissolved in DMSO were added to triplicate wells in culture medium. The compounds were initially tested at 10 and 50 μM final concentrations and each plate also contained DMSO alone, medium alone, and 6. Three days later, medium was replaced with a 1:1000 dilution of ViVi-Ren Live Cell Substrate (Promega) in DME minus phenol red and 10% FBS. Luminescence was measured with a Molecular Devices M5e plate reader. Mean values of triplicate wells were determined and compared to the mean value for the wells that received DMSO alone. […] The EC50 was determined by comparing luciferase activity for eight serial dilutions of the compound and DMSO treated cells using GraphPad Prism software.

[4] = tested on: DENV-2; assay: Sequence analysis of prM/E region clones from passaged virus (mutation frequency); format: cell-based, DENV-2 New Guinea C strain
Experimental: For qPCR determination of viral genome copy number, viral RNA was isolated from 140 μL of drug-treated or DMSO-treated infected culture supernatant using QIAamp Viral RNA mini kit (Qiagen), following manufacturer’s protocol. Viral RNA was quantified using the TaqMan RNA-to-CT 1-Step qPCR Kit (Applied Biosystems). Primers used for qPCR were 5’-[…]-3’ (forward) and 5’-[…]-3’ (reverse) amplifying a region numbering 8928–8988 in the genome (numbering starting from the beginning of genome, accession number KM204118). The qPCR FAM probe sequence is 5’-[…]-3’. Serial 10-fold dilutions of plasmid containing the NS5 gene of DENV were used to generate a standard curve for the quantification of viral RNA genome copy number based on cycle threshold (CT) values. The limit of detection for NS5 plasmid dilutions was 30 copies (S1 Fig). […] Statistical analysis via GraphPad Prism 5 software. To obtain sequence data from viral RNA isolated at each passage, cDNA was generated via M-MLV reverse transcriptase and random hexamers (New England Biolab Inc.) per manufacturer’s instructions. An approximately 1600-base fragment covering membrane protein (prM) and envelop protein gene (E) of DENV-2 viral genome was amplified using PfuUltra II Fusion HS DNA polymerase (Agilent) with primers prMEfor (5'- […]-3') and prMErev (5'- […] -3'). PCR products were purified using Qiaquick PCR purification kit (Qiagen) and then digested with EcoRI and ligated into pcDNA3.1 for sequencing. Sequence for approximately 40–50 individual clones per sample was obtained from the University of Minnesota Genomics Center. Sequences were aligned over a 980-base region that had adequate quality sequencing reads for all clones. Only mutations present in both the forward and reverse reads of a clone were counted. All incidence-based determinants of mutation frequency (Mf min, Mf max, Mfe) were calculated as described.
Virus was passaged on Huh-7 cells supplemented with 200 μM 3a, 500 μM 3b or DMSO (0.5%). Huh-7 cells were seeded in 12-well plates and inoculated with DENV-2 as described for Titer reduction experiments above except an m.o.i. of 0.01 was used. After 3 days of compound treatment, 50 μL of the harvested supernatant was used to inoculate fresh Huh-7 cells in the continued presence of compound. The virus titer in the harvested supernatant was determined by plating ten-fold serial dilutions onto single wells of a 24-well plate. The wells were washed and overlaid as described in the Titer reduction assay above. If no plaques were obtained in any of the harvested supernatant dilutions, the undiluted supernatant was used. If plaques were not detectable, the virus titer was considered to be at the limit of detection, 1 plaque (3.3 pfu/mL). Supernatant titer was determined from a single well where there were approximately 20–50 plaques when possible. This experiment was repeated three times at the compound concentrations listed.

[5] = tested on: DENV-2; assay: Virus passage in presence of compound, supernatant titer by plaque assay; format: cell-based, DENV-2 New Guinea C strain; conditions: 3a 200 μM, Huh-7, passages 5 and 6; limit of detection 3.3 pfu/mL
Experimental: Huh-7 cells were seeded in 12-well plates at a density of 4×10^5 cells per well in 1 mL culture medium. The next day, cells were washed and inoculated with DENV at a multiplicity of infection (m.o.i.) of 0.2 in 500μl infection medium (MEM containing 2% FBS and 10 mM HEPES). The inoculum was removed after 1h, cells were washed with PBS and then incubated in 1 mL MEM, 2% FBS, 1% pen/strep plus compound for 72 h. Viral supernatants were clarified by centrifugation for 5 min at 1500×g and aliquoted and stored at -80°C. Viral titers were determined using a plaque assay on Vero cells. Briefly, confluent Vero cell monolayers in 24-well plates were incubated at 37°C for 1 h with duplicate 300 μl samples of 10-fold serial dilutions of viral supernatants. The cells were then washed to remove unbound viral particles and overlaid with 500ul MEM containing 1.3% methylcellulose, 5% FBS and 10mM HEPES. […] Infectious virus titer (pfu/mL) was determined using the following formula: number of plaques × dilution factor × (1/inoculation volume). […]
(§1) Virus was passaged on Huh-7 cells supplemented with 200 μM 3a, 500 μM 3b or DMSO (0.5%). […] The virus titer in the harvested supernatant was determined by plating ten-fold serial dilutions onto single wells of a 24-well plate. […] Supernatant titer was determined from a single well where there were approximately 20–50 plaques when possible. […]

[6] = tested on: DENV-2; assay: Virus passage in presence of compound, genome copy number by RT-qPCR (NS5); format: cell-based, DENV-2 New Guinea C strain; conditions: 3a 200 μM, Huh-7, passage 6; limit of detection 30 copies
Experimental: For qPCR determination of viral genome copy number, viral RNA was isolated from 140 μL of drug-treated or DMSO-treated infected culture supernatant using QIAamp Viral RNA mini kit (Qiagen), following manufacturer’s protocol. Viral RNA was quantified using the TaqMan RNA-to-CT 1-Step qPCR Kit (Applied Biosystems). Primers used for qPCR were 5’-[…]-3’ (forward) and 5’-[…]-3’ (reverse) amplifying a region numbering 8928–8988 in the genome (numbering starting from the beginning of genome, accession number KM204118). The qPCR FAM probe sequence is 5’-[…]-3’. Serial 10-fold dilutions of plasmid containing the NS5 gene of DENV were used to generate a standard curve for the quantification of viral RNA genome copy number based on cycle threshold (CT) values. […] Sequences were aligned over a 980-base region that had adequate quality sequencing reads for all clones. Only mutations present in both the forward and reverse reads of a clone were counted. All incidence-based determinants of mutation frequency (Mf min, Mf max, Mfe) were calculated as described.
as §1

[7] = tested on: DENV-2; assay: Titer reduction assay in Huh-7 cells, plaque assay on Vero cells; format: cell-based, DENV-2 New Guinea C strain; conditions: Dengue virus, DENV2, m.o.i. 0.2, 72 h
Experimental: Huh-7 cells were seeded in 12-well plates at a density of 4×10^5 cells per well in 1 mL culture medium. The next day, cells were washed and inoculated with DENV at a multiplicity of infection (m.o.i.) of 0.2 in 500μl infection medium (MEM containing 2% FBS and 10 mM HEPES). The inoculum was removed after 1h, cells were washed with PBS and then incubated in 1 mL MEM, 2% FBS, 1% pen/strep plus compound for 72 h. Viral supernatants were clarified by centrifugation for 5 min at 1500×g and aliquoted and stored at -80°C. Viral titers were determined using a plaque assay on Vero cells. Briefly, confluent Vero cell monolayers in 24-well plates were incubated at 37°C for 1 h with duplicate 300 μl samples of 10-fold serial dilutions of viral supernatants. The cells were then washed to remove unbound viral particles and overlaid with 500ul MEM containing 1.3% methylcellulose, 5% FBS and 10mM HEPES. After 5 days of incubation at 37°C and 5% CO2, cells were washed with PBS, fixed, and stained using 1% Giemsa. Infectious virus titer (pfu/mL) was determined using the following formula: number of plaques × dilution factor × (1/inoculation volume). The viral titer was presented as the mean of duplicate samples from a dilution yielding approximately 20–50 plaques per well.

[8] = Cell viability assay (MTS) in Huh-7 cells; format: cell-based; conditions: human
Experimental: The sensitivity of the cell lines to the compounds was examined using the 3-(4,5-dimethylthiazol-2-yl)-5-(3-carboxymethoxyphenyl)-2-(4-sulfophenyl)-2H-tetrazolium (MTS)-based tetrazolium reduction CellTiter 96 Aqueous Non-Radioactive cell proliferation assay (Promega G5430). The compounds were initially tested at 10 and 50 μM final concentrations. Each plate also contained DMSO alone, medium alone, and an inhibitory compound, 6. DENV replicon or Huh-7 cells were plated at a density of 1,500 or 8 × 10^3 cells, respectively, per well in 96-well plates containing 100 μl of culture medium overnight. Compounds were added to triplicate wells in culture medium and incubated for an additional 72 h. MTS reagent was then added to each well and incubated at 37°C in a humidified 5% CO2 atmosphere. The plates were read at various time points at a wavelength of 490 nm using a Molecular Devices M5e plate reader. Mean values of triplicate wells were determined and compared to the mean value for the wells that received DMSO alone. For compounds selected for dose-response experiments, the CC50 was determined by comparing cell viability for eight serial dilutions of the compound and DMSO treated cells using GraphPad Prism software.

[9] = DENV2, 72 h, DENV replicon BHK cells, luciferase, 3 days, read-out: EC50
[10] = passage 2, 3a 200 μM, 3b 500 μM, Huh-7
[11] = passage 3, 3a 200 μM, 3b 500 μM, Huh-7

Question: Which CC50 ([1]; DENV replicon BHK cells, MTS, 72 h) does the source give for `NC(=O)c1nc[nH]n1` [Compound 1a, 1,2,4-Triazole-3-carboxamide] here?
Answer: Its CC50 is > 665 µM.

Question: What about the cytotoxicity ([1]; at 1000 μM, DENV replicon cells) of the same molecule?
Answer: The cytotoxicity was “did not show cytotoxicity”.

Question: What about the CC50 at 72 h [2] of the same molecule?
Answer: Its CC50 at 72 h is > 1000 µM.

Question: What about the EC50 ([3]; DENV2, BHK, 72 h) of the same molecule?
Answer: The EC50 was 4.9 ± 1.6 µM.

Question: With `NC(=O)c1ncn([C@@H]2O[C@H](CO)[C@@H](O)[C@H]2O)n1` [Compound 1b, ribavirin, reference compound] as the molecule, how does the CC50 at 72 h [2] read?
Answer: Its CC50 at 72 h is 20 µM.

Question: With `NC(=O)c1nc[nH]c1O` [Compound 2a, 5-Hydroxy-1H-imidazole-4-carboxamide] as the molecule, how does the CC50 at 72 h [2] read?
Answer: Its CC50 at 72 h is 23 ± 4.2 µM.

Question: And the EC50 [3, 9]?
Answer: Its EC50 is 2.4 µM.

Question: For `NC(=O)c1ncn([C@@H]2O[C@H](CO)[C@@H](O)[C@H]2O)c1O` [Compound 2b, mizoribine, reference compound], which CC50 at 72 h [2] is on record?
Answer: Its CC50 at 72 h is 33 ± 12 µM.

Question: And the EC50 [3, 9]?
Answer: The EC50 was 15 µM.

Question: What does the source list for `NC(=O)c1nccnc1O` [Compound 3a, 3-Hydroxy-2-pyrazinecarboxamide]?
Answer: CC50 at 72 h [2]: > 665 µM; number of mutations per clone compared to DMSO ([4]; 3a 200 μM passage 4, 3b 500 μM passage 3, p < 0.0001, Mann-Whitney U): significant difference; Mf max (maximum mutation frequency) [4, 10]: 24.6 per 10,000 nucleotides; Mf min (minimum mutation frequency) [4, 10]: 5.2 per 10,000 nucleotides; Mfe (entity level mutation frequency) [4, 10]: 2.5 ×10^−3; Number of clones with mutation/total [4, 10]: 26/36; Number of different mutations [4, 10]: 17; Number of haplotypes [4, 10]: 17; Number of total mutations [4, 10]: 80; Transition A→G, number of mutations [4, 10]: 3; Transition C→U, number of mutations [4, 10]: 4; Transition G→A, number of mutations [4, 10]: 3; Transition U→C, number of mutations [4, 10]: 1; Transversion A→U, number of mutations [4, 10]: 1; Transversion G→U, number of mutations [4, 10]: 2; Transversion U→A, number of mutations [4, 10]: 2; Transversion U→G, number of mutations [4, 10]: 1; Mf max (maximum mutation frequency) [4, 11]: 5.7 per 10,000 nucleotides; Mf min (minimum mutation frequency) [4, 11]: 2.7 per 10,000 nucleotides; Mfe (entity level mutation frequency) [4, 11]: 1.4 ×10^−3; Number of clones with mutation/total [4, 11]: 12/37; Number of different mutations [4, 11]: 9; Number of haplotypes [4, 11]: 9; Number of total mutations [4, 11]: 19; Transition C→U, number of mutations [4, 11]: 3; Transition G→A, number of mutations [4, 11]: 3; Transition U→C, number of mutations [4, 11]: 2; Transversion G→U, number of mutations [4, 11]: 1; Mf max (maximum mutation frequency) ([4]; passage 4, 3a 200 μM, Huh-7): 6.6 per 10,000 nucleotides; Mf min (minimum mutation frequency) ([4]; passage 4, 3a 200 μM, Huh-7): 3.9 per 10,000 nucleotides; Mfe (entity level mutation frequency) ([4]; passage 4, 3a 200 μM, Huh-7): 1.6 ×10^−3; Number of clones with mutation/total ([4]; passage 4, 3a 200 μM, Huh-7): 19/45; Number of different mutations ([4]; passage 4, 3a 200 μM, Huh-7): 16; Number of haplotypes ([4]; passage 4, 3a 200 μM, Huh-7): 15; Number of total mutations ([4]; passage 4, 3a 200 μM, Huh-7): 27; Transition A→G, number of mutations ([4]; passage 4, 3a 200 μM, Huh-7): 2; Transition C→U, number of mutations ([4]; passage 4, 3a 200 μM, Huh-7): 3; Transition G→A, number of mutations ([4]; passage 4, 3a 200 μM, Huh-7): 3; Transition U→C, number of mutations ([4]; passage 4, 3a 200 μM, Huh-7): 4; Transversion C→A, number of mutations ([4]; passage 4, 3a 200 μM, Huh-7): 2; Transversion U→A, number of mutations ([4]; passage 4, 3a 200 μM, Huh-7): 2; infectious virus in supernatant [5]: no infectious virus was detected; genomic RNA in supernatant [6]: no genomic RNA was detected; EC50 [7]: 20 ± 11 µM; times more active than nucleobase 5a (favipiravir) ([3]; DENV replicon cells, EC50 compared): 5 times; CC50 at 72 h [8]: > 1000 µM
